Test results: patent publication US20240000939A1, “METHODS OF PERSONALIZED PRECONDITIONING FOR CELL THERAPY” (priority 2021, published 2024)
“Also recorded” adds a separate entry of the source.

Key:
[1] = Retrospective PRWCC analysis: toxicity (CRS, neurotoxicity/ICANS, infection, neutropenia, cause of death) after tisagenlecleucel; assay type: in vivo, human
Method: Study Design. A retrospective analysis of pediatric and young adult patients with R/R B-ALL as part of the Pediatric Real-World CAR Consortium (PRWCC; n=15 centers) was conducted. Two hundred (n=200) patients underwent collection/manufacture for planned standard-of-care CD19-specific CAR T cell therapy (tisagenlecleucel).
Outcomes of interest. The main outcomes of interest were overall survival (OS), cumulative incidence of relapse (CIR), and the cumulative incidence of a composite endpoint (relapse or loss of BCA). Other outcomes of interest were response rates, cytokine release syndrome (CRS), and immune effector cell associated neurotoxicity syndrome (ICANS). Complete remission (CR) was defined as ≤5% bone marrow blasts by morphology, absence of circulating lymphoblasts, and no evidence of extramedullary disease. MRD negativity was defined as <0.01% abnormal B cells assessed by flow cytometry. Relapse was defined as any (medullary or extramedullary) evidence of hematologic, cytogenetic, and/or molecular recurrence of primary disease. CD19-positive B cell recovery was defined as any detectable CD19-positive B cells ([…]) on a peripheral blood lymphocyte flow cytometry panel. Toxicity grading was described according to ASTCT (Lee et al., Biol Blood Marrow Transplant. 04 2019; 25 (4):625-638) for CRS and ICANS. Additionally, patients were further delineated based on their disease burden: high disease burden (≥5% lymphoblasts, CNS3 disease and/or isolated EM disease), and no (undetectable) or low disease burden (<5% lymphoblasts, ≤CNS2 disease, and/or no detectable EM disease) based off the previous PRWCC analysis (Schultz et al., Blood. 2020; 136 (Supplement 1):14-15). The fludarabine exposure, area under the curve (AUC), for each patient was calculated using a population PK model as previously described in Langenhorst et al., Clin Pharmacokinet. May 2019; 58 (5):627-637. The patient variables required to calculate an estimated fludarabine exposure include estimated GFR (using either the Cockroft-Gault or Schwartz equation depending on age), actual body weight, height, and dosage of fludarabine utilized where actual body weight and estimated GFR are the best predictors of fludarabine PK (Langenhorst et al., Clin Pharmacokinet. May 2019; 58 (5):627-637).
Statistical Analysis. For all analyses, tisagenlecleucel infusion date was considered time zero (0). The impact of different factors on the chance of response was assessed through Mann-Whitney-Wilcoxon test for continuous variables, Chi-squared or Fisher's exact test for categorical variables (univariable analysis), and logistic regression (multivariable analysis). OS for all treated patients was defined as the time from infusion to death from all causes. OS in responding patients was defined as time from day of response (day 28 from CAR infusion) to death from all causes. Patients alive were censored at their last follow-up date. Time-to-relapse was defined as the time from the date of infusion to the date of disease relapse, while time-to-composite endpoint was defined as the time from the date of infusion to the date of either disease relapse or loss of BCA, whichever came first. For both endpoints, patients alive without disease relapse (and loss of BCA for composite endpoint) were censored at their date of last follow-up. Death and allo-HCT without disease relapse (and loss of BCA) were considered competing events. […]

[2] = Estimated fludarabine exposure (AUC) calculated with a population PK model; design: species or system human
[3] = tested on: R/R B-cell ALL (B-ALL); assay: Retrospective PRWCC analysis: response, relapse, composite endpoint (relapse or loss of BCA) and overall survival after tisagenlecleucel; assay type: in vivo, human; details: for HR, overall survival, patients with high pre-infusion disease burden: sub-optimal fludarabine exposure
[4] = multivariable, AUC <13.8 (sub-optimal) vs ≥13.8 mg*hr/L (ref), responding patients
[5] = univariable, AUC <13.8 vs ≥13.8 mg*hr/L (ref)
[6] = univariable, AUC <13.8 vs ≥13.8 mg*hr/L (ref), responding patients

Compound: Nc1nc(F)nc2c1ncn2[C@@H]1O[C@H](CO)[C@@H](O)[C@@H]1O [fludarabine, reference compound]
- patients who died from infection ([1]; all received suboptimal fludarabine): four
- infection risk with increased fludarabine exposure (≥13.8 mg*hr/L) ([1]; in vivo): no apparent increased infection risk
- association of optimal fludarabine exposure with toxicity (CRS, neurotoxicity) ([1]; neurotoxicity limited to ICANS graded patients): not associated with increased CRS or neurotoxicity; also recorded: No increase in toxicity
- ICANS grade ≥3 (sICANS) ([1]; optimal flu (≥13.8 mg*hr/L), 5/67): 7%
- ICANS grade ≥3 (sICANS) ([1]; optimal flu (≥13.8 mg*hr/L), 5/67, listed as flu): (7%)
- ICANS grade ≥1 ([1]; optimal flu (≥13.8 mg*hr/L), 15/67): 22%
- ICANS grade ≥1 ([1]; optimal flu (≥13.8 mg*hr/L), 15/67, listed as flu): (22%)
- CRS grade ≥3 (sCRS) ([1]; optimal flu (≥13.8 mg*hr/L), 18/102): 18%
- CRS grade ≥3 (sCRS) ([1]; optimal flu (≥13.8 mg*hr/L), 18/102, listed as flu): (18%)
- infection post CAR T cell therapy ([1]; optimal fludarabine exposure, 36/102): 35%
- Grade 4 neutropenia ([1]; patients receiving optimal fludarabine): 65%
- Grade 4 neutropenia ([1]; patients receiving suboptimal fludarabine): 67%
- ICANS grade ≥3 (sICANS) ([1]; sub-optimal flu (<13.8 mg*hr/L), 4/31): 13%
- ICANS grade ≥3 (sICANS) ([1]; sub-optimal flu (<13.8 mg*hr/L), 4/31, listed as flu): (13%)
- ICANS grade ≥1 ([1]; sub-optimal flu (<13.8 mg*hr/L), 9/31): 29%
- ICANS grade ≥1 ([1]; sub-optimal flu (<13.8 mg*hr/L), 9/31, listed as flu): (29%)
- CRS grade ≥3 (sCRS) ([1]; sub-optimal flu (<13.8 mg*hr/L), 15/50): 30%
- CRS grade ≥3 (sCRS) ([1]; sub-optimal flu (<13.8 mg*hr/L), 15/50, listed as flu): (30%)
- infection post CAR T cell therapy ([1]; suboptimal fludarabine exposure, 21/50): 42%
- fludarabine AUC threshold of interest for disease relapse ([2]; Example 1, exposure analyzed as continuous variable (FIG. 1)): 13800 ng·h/mL
- optimal fludarabine exposure (AUC) ([2]; Example 2, where hazard ratio curve for CIR crosses HR=1): ≥ 13800 ng·h/mL
- odds ratio of response by cumulative Flu AUC (mg*hr/L) ([3]; multivariable analysis, AUC as continuous variable): 0.81
- HR, overall survival in responding patients ([3]; multivariable, AUC <13.8 (sub-optimal) vs ≥13.8 mg*hr/L (ref)): 1.97
- HR, overall survival in all treated patients ([3]; multivariable, AUC <13.8 (sub-optimal) vs ≥13.8 mg*hr/L (ref), entire cohort): 1.53
- HR, cumulative incidence of composite endpoint (relapse or loss of B-cell aplasia) [3, 4]: 1.96
- HR, cumulative incidence of relapse [3, 4]: 2.45
- HR, overall survival, patients with high pre-infusion disease burden ([3]; all treated patients): 2.27
- HR, overall survival, patients with high pre-infusion disease burden ([3]; responding patients only): 3.50
- HR, overall survival in all treated patients [3, 5]: 1.51
- HR, overall survival in responding patients [3, 5]: 2.25
- HR, cumulative incidence of composite endpoint (relapse or loss of B-cell aplasia) [3, 6]: 1.77
- HR, cumulative incidence of relapse [3, 6]: 1.95

Compound: tisagenlecleucel
- severe neurotoxicity (grade 3 or higher) ([1]; all patients, 12/152): 8%
- severe CRS (sCRS; grade 3 or higher) ([1]; all patients, 33/152): 22%
- neurotoxicity ([1]; all patients, 36/152): 24%
- infection post CAR T cell therapy ([1]; all patients, 57/152): 38%
- Grade 4 neutropenia ([1]; all patients, 97/148): 66%
- CRS ([1]; all patients, 97/152): 64%
- CRS grade 1 ([1]; n=152): (24%)
- CRS grade 2 ([1]; n=152): (18%)
- CRS grade 3 ([1]; n=152): (11%)
- CRS grade 4 ([1]; n=152): (10%)
- CRS grade 5 ([1]; n=152): (1%)
- CRS grade none ([1]; n=152): (36%)
- Neurotoxicity grade 1 ([1]; n=152): (11%)
- Neurotoxicity grade 2 ([1]; n=152): (5%)
- Neurotoxicity grade 3 ([1]; n=152): (5%)
- Neurotoxicity grade 4 ([1]; n=152): (2%)
- Neurotoxicity grade 5 ([1]; n=152): (1%)
- Neurotoxicity grade none ([1]; n=152): (76%)
- Cause of death: ARDS/cardiac arrest ([1]; share of deaths): (2%)
- Cause of death: CRS ([1]; share of deaths): (2%)
- Cause of death: Infection ([1]; share of deaths): (10%)
- Cause of death: Leukemia ([1]; share of deaths): (74%)
- Cause of death: Neurotoxicity ([1]; share of deaths): (2%)
- Cause of death: Transplant related ([1]; share of deaths): (7%)
- 12-month OS ([3]; Example 1): 75%
- 12-month cumulative incidence of relapse in responders ([3]; Example 1): 39.2%
- 12-month CIR in responding patients ([3]; Example 2): 36.4%
- 12-month OS ([3]; Example 2, entire cohort): 75.1%
- 24-month OS ([3]; Example 2, entire cohort): 56.5%
- cumulative incidence of composite endpoint (relapse or loss of BCA) ([3]; at 12-months, responding patients): 55.2%
- loss of BCA post CAR ([3]; n=152): (34%)
- relapsed post CAR ([3]; n=152): (36%)
- CD19-negative relapse ([3]; share of relapses post CAR): (45%)
- CD19-positive relapse ([3]; share of relapses post CAR): (55%)
